Test [1] deals with T1, BRD4 Bromodomain 1 (BRD4 BD1) (Homo sapiens, UniProt O60885).
T1 construct: 44-168 and BRD4 BD2
Put plainly: AlphaScreen binding assay, BRD4 BD1. The following applies: His-tagged BRD4 BD1 50 nM, biotinylated H4 (1-21) K5/8/12/16 tetra-acetylated peptide 50 nM, compounds listed under IC50 range headings. The procedure, abridged: (§1)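 Compound dilution series were mixed with His-tagged BRD4 bromodomain and biotinylated tetra-acetylated H4 (1-21) peptide at pH 7.3 (BD1 and peptide at 50 nM, BD2 and peptide at 100 nM). Donor and acceptor beads were then added, and plates were equilibrated at least 1 h before reading. IC50 values were fitted with a four-parameter logistic model.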

Test [2] concerns the target T2, BRD4 Bromodomain 2 (BRD4 BD2) (Homo sapiens, UniProt O60885).
T2 construct: 333-460 were cloned, expressed, and purified to homogeneity
The experiment in a line: AlphaScreen binding assay, BRD4 BD2. As to conditions: His-tagged BRD4 BD2 100 nM, biotinylated H4 (1-21) K5/8/12/16 tetra-acetylated peptide 100 nM, compounds listed under IC50 range headings. In short, it runs like this:
as §1
A general note: Bead proximity is the source of the signal in Alpha formats.

Test [3] has as its system acute myelocytic leukemia (AML) cell line MV4-11. Put plainly: Oncology cell growth assay (3-day proliferation, CellTiter-Glo). The following applies: Homo sapiens, MV4-11, 72 h, MV4-11 cells, 3000 cells/well, compounds listed under IC50 range headings, read-out: MV411 IC50 (gIC50, inhibition of proliferation). The format is cell-based. The procedure, abridged:
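A 3-day proliferation test used MV4-11 cells seeded at 3000 per well with eight compound concentrations (10 μM top, 3-fold dilution) at 37° C in 5% CO2. CellTiter-Glo luminescence defined viable cell signal. A four-parameter logistic curve against DMSO and background wells gave the gIC50.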
(Cellular ATP, detected with luciferase, serves as a proxy for viable cell number.)

Each structure is given as a SMILES string. pIC50: −log10 of the molar value. Several values for one entry are separate records, joined by “and”; a condition that tells them apart may be missing. Equal values may be shown once.

For the compound `CC(=O)N1c2ccc(-c3cnn(CCS(C)(=O)=O)c3)c(OC3CCC3)c2CC[C@@H]1C` [I-409], the pIC50 is 6.00 to 7.00 in test [1], above 7.30 in test [2] and above 6.30 in test [3].
For `COC(=O)N1c2ccc(-c3cnn(C4CCNCC4)c3)c(OCC3CCCC3)c2CC[C@@H]1C` [I-462], in that order: 6.00 to 7.00, above 7.30 and 6.00 to 6.30.
Regarding `CC(=O)N1c2ccc(-c3ccc(S(C)(=O)=O)cc3)c(Oc3ncc(F)cn3)c2CC[C@@H]1C` [I-549], the results for the pIC50 in test [1], in test [2] and in test [3] were 5.00 to 6.00, 6.30 to 7.30 and 6.00 to 6.30, respectively.
For `COC(=O)N1c2ccc(-c3cnn(C4CCNC4)c3)c(OC3CCC3)c2CC[C@@H]1C` (stereo partly drawn) [I-108, (2S)-methyl 5-cyclobutoxy-2-methyl-6-(1-(pyrrolidin-3-yl)-1H-pyrazol-4-yl)-3,4-dihydroquinoline-1(2H)-carboxylate], in that order: 6.00 to 7.00, above 7.30 and above 6.30.
In the case of `CC(=O)N1c2ccc(-c3cnn(C4CCNCC4)c3)c(Oc3ccc(C(N)=O)cn3)c2CC[C@@H]1C` [I-523], the pIC50 in test [1] is 5.00 to 6.00; in test [2], 6.30 to 7.30; in test [3], below 6.00.
For `CCCOc1c(C2=CCN(C(=O)OC(C)(C)C)CC2)ccc2c1CC[C@H](C)N2C(C)=O` [I-34, tert-butyl (S)-4-(1-acetyl-2-methyl-5-propoxy-1,2,3,4-tetrahydroquinolin-6-yl)-3,6-dihydropyridine-1(2H)-carboxylate], in that order: at most 5.00, 6.30 to 7.30 and below 6.00.
In the case of `CC(=O)N1c2ccc(-c3cnn(C4CC4)c3)c(Oc3ncccc3C(F)(F)F)c2CC[C@@H]1C` [I-86, (S)-1-(6-(1-cyclopropyl-1H-pyrazol-4-yl)-2-methyl-5-(3-(trifluoromethyl)pyridin-2-yloxy)-3,4-dihydroquinolin-1 (2H)-yl)ethanone], the results for the pIC50 in test [1], in test [2] and in test [3] were 6.00 to 7.00, above 7.30 and above 6.30, respectively.
For `COC(=O)N1c2ccc(-c3cnn(C4CC4)c3)c(O[C@@H](F)C(N)=O)c2CC[C@@H]1C` [I-20, (S)-methyl 5-((S)-2-amino-1-fluoro-2-oxoethoxy)-6-(1-cyclopropyl-1H-pyrazol-4-yl)-2-methyl-3,4-dihydroquinoline-1(2H)-carboxylate], in that order: at most 5.00, at most 6.30 and below 6.00.
`CC(=O)N1c2ccc(-c3cnn(C4CC4)c3)c(OCCN3CCCS3(=O)=O)c2CC[C@@H]1C` [I-44, 2-(2-{[(2S)-1-acetyl-6-(1-cyclopropyl-1H-pyrazol-4-yl)-2-methyl-1,2,3,4-tetrahydroquinolin-5-yl]oxy}ethyl)-1λ^6,2-thiazolidine-1,1-dione]: the pIC50 in test [1] was 6.00 to 7.00; in test [2], above 7.30; in test [3] it was 6.00 to 6.30.
With `COC(=O)N1c2ccc(-c3cnn(C4CCN(C)CC4)c3)c(Oc3ccc(Cl)cc3C#N)c2CC[C@@H]1C` [I-245, methyl (S)-5-(4-chloro-2-cyanophenoxy)-2-methyl-6-(1-(1-methylpiperidin-4-yl)-1H-pyrazol-4-yl)-3,4-dihydroquinoline-1(2H)-carboxylate], the pIC50 is 6.00 to 7.00 and ≤ 5.00 in test [1]; above 7.30 in test [2]; above 6.30 in test [3].
With `COC(=O)N1c2ccc(-c3cnn(C4CCNCC4)c3)c(Oc3cc(C4CC4)ncn3)c2CC[C@@H]1C` [I-531], the pIC50 in test [1] is 5.00 to 6.00; in test [2] it was 6.30 to 7.30; in test [3], above 6.30.
For `C[C@H]1CCc2c(ccc(-c3cnn(C4CCNCC4)c3)c2Oc2ccccc2C#N)N1C(=O)C1CC1` [I-150, (S)-2-(1-(cyclopropanecarbonyl)-2-methyl-6-(1-(piperidin-4-yl)-1H-pyrazol-4-yl)-1,2,3,4-tetrahydroquinolin-5-yloxy)benzonitrile], in that order: 6.00 to 7.00, above 7.30 and above 6.30.
For `COC(=O)N1c2ccc(-c3cnn(C4CCNCC4)c3)c(Oc3ccc(F)c(Cl)c3)c2CC[C@@H]1C` [I-163, (S)-methyl 5-(3-chloro-4-fluorophenoxy)-2-methyl-6-(1-(piperidin-4-yl)-1H-pyrazol-4-yl)-3,4-dihydroquinoline-1(2H)-carboxylate], in that order: 6.00 to 7.00, above 7.30 and above 6.30.
Regarding `C[C@H]1CCc2c(ccc(-c3cnn(C4CCNCC4)c3)c2Oc2ccc(F)cc2)N1C(=O)C1CC1` [I-164, (S)-cyclopropyl(5-(4-fluorophenoxy)-2-methyl-6-(1-(piperidin-4-yl)-1H-pyrazol-4-yl)-3,4-dihydroquinolin-1 (2H)-yl)methanone], the pIC50 is 6.00 to 7.00 in test [1], above 7.30 in test [2] and above 6.30 in test [3].
For `COC(=O)N1c2ccc(-c3cnn(C4CCNCC4)c3)c(OCC(=O)N3CCCC3)c2CC[C@@H]1C` [I-466], in that order: 6.00 to 7.00, 6.30 to 7.30 and below 6.00.
For `CC(=O)N1c2ccc(-c3cnn(C4CC4)c3)c(OC3CC3)c2CC[C@@H]1C` [I-113, (S)-1-(5-cyclopropoxy-6-(1-cyclopropyl-1H-pyrazol-4-yl)-2-methyl-3,4-dihydroquinolin-1(2H)-yl)ethanone], in that order: 6.00 to 7.00, 6.30 to 7.30 and above 6.30.
For `COC(=O)N1c2ccc(-c3cnn(C4CCNCC4)c3)c(Oc3ccc(C(F)(F)F)cn3)c2CC[C@@H]1C` [I-524], in that order: 5.00 to 6.00, 6.30 to 7.30 and above 6.30.
Turning to `CC(=O)N1c2ccc(-c3cnn(C4CC4)c3)c(Oc3ccccc3)c2CC[C@@H]1C` [I-594], the values for the pIC50 in test [1], in test [2] and in test [3] were 6.00 to 7.00, above 7.30 and above 6.30, respectively.
For `COC(=O)N1c2ccc(-c3cnn(C4CCN(C)CC4)c3)c(Oc3ccc(F)cc3)c2CC[C@@H]1C` [I-283, Methyl (S)-5-(4-fluorophenoxy)-2-methyl-6-(1-(1-methylpiperidin-4-yl)-1H-pyrazol-4-yl)-3,4-dihydroquinoline-1(2H)-carboxylate], in that order: 6.00 to 7.00, above 7.30 and above 6.30.
`COC(=O)N1c2ccc(-c3cnn(C4CCNCC4)c3)c(Oc3ccc(F)c(C#N)c3)c2CC[C@@H]1C` [I-162, (S)-methyl 5-(3-cyano-4-fluorophenoxy)-2-methyl-6-(1-(piperidin-4-yl)-1H-pyrazol-4-yl)-3,4-dihydroquinoline-1(2H)-carboxylate]: the pIC50 is 6.00 to 7.00 in test [1], above 7.30 in test [2] and above 6.30 in test [3].
Consider `COC(=O)N1c2ccc(-c3cnn(C4CC4)c3)c(OCC(C)(C)CO)c2CC[C@@H]1C` [I-17, (S)-methyl 6-(1-cyclopropyl-1H-pyrazol-4-yl)-5-(3-hydroxy-2,2-dimethylpropoxy)-2-methyl-3,4-dihydroquinoline-1(2H)-carboxylate], for which the pIC50 was 6.00 to 7.00 in test [1], 6.30 to 7.30 in test [2] and 6.00 to 6.30 in test [3].
For `COC(=O)N1c2ccc(-c3cnn(C4CC4)c3)c(Oc3ccc(F)cc3)c2CC[C@@H]1C` [I-212, (S)-methyl 6-(1-cyclopropyl-1H-pyrazol-4-yl)-5-(4-fluorophenoxy)-2-methyl-3,4-dihydroquinoline-1(2H)-carboxylate], in that order: 5.00 to 6.00, 6.30 to 7.30 and above 6.30.
For `CC(=O)N1c2ccc(-c3cnn(C4CCNCC4)c3)c(Oc3ncccc3Cl)c2CC[C@@H]1C` [I-142, (S)-1-(5-(3-chloropyridin-2-yloxy)-2-methyl-6-(1-(piperidin-4-yl)-1H-pyrazol-4-yl)-3,4-dihydroquinolin-1 (2H)-yl)ethanone], in that order: 6.00 to 7.00, 6.30 to 7.30 and above 6.30.
For `COC(=O)N1c2ccc(-c3cnn(C4CCN(C)C4)c3)c(OC3CCC3)c2CC[C@@H]1C` (stereo partly drawn) [I-247, (2S)-methyl 5-cyclobutoxy-2-methyl-6-(1-(1-methylpyrrolidin-3-yl)-1H-pyrazol-4-yl)-3,4-dihydroquinoline-1 (211)-carboxylate], in that order: 6.00 to 7.00, 6.30 to 7.30 and above 6.30.
With `C[C@H]1CCc2c(ccc(-c3cnn(C4CNC4)c3)c2OC2CCC2)N1C(=O)C1CC1` [I-101, (S)-(6-(1-(azetidin-3-yl)-1H-pyrazol-4-yl)-5-cyclobutoxy-2-methyl-3,4-dihydroquinolin-1(2H)-yl)(cyclopropyl)methanone], the pIC50 in test [1] is 6.00 to 7.00; in test [2] it was above 7.30; in test [3] it was above 6.30.
As to `COC(=O)N1c2ccc(-c3cnn(C4CCNCC4)c3)c(Oc3ccccc3Cl)c2CC[C@@H]1C` [I-160, (S)-methyl 5-(2-chlorophenoxy)-2-methyl-6-(1-(piperidin-4-yl)-1H-pyrazol-4-yl)-3,4-dihydroquinoline-1(2H)-carboxylate], the pIC50 is 6.00 to 7.00 in test [1], above 7.30 in test [2] and above 6.30 in test [3].

Source of the values: patent publication US10611750B2, “Tetrahydroquinoline compositions as bet bromodomain inhibitors” (FORMA Therapeutics, Inc., priority 2013, dated 2020).
